Reference: US11865110B2, “Thrombin inhibitors, formulations, and uses thereof” (VERSEON INTERNATIONAL CORPORATION, priority 2018, dated 2024)

What was measured:
thrombin = target: T1, thrombin (Homo sapiens, UniProt P00734); assay: Human Thrombin Generation Assay (TGA); assay type: biochemical; details: concentration that reduces endogenous thrombin potential AUC by 50%; human plasma; read-out: ETP EC50
T1 construct: from tissue; host or cells: human plasma (thrombin generated in situ by tissue factor, phospholipids and CaCl2)
Protocol: Results for the human thrombin generation assay (TGA; not to be confused with “thermogravimetric analysis” which is used elsewhere and carries the same acronym. One of skill in the art will appreciate which meaning is intended based on context of the surrounding technical information.) were generated as follows. In a 96-well plate, 4 μL of 100, 33.3, 11.1, 3.7, 1.23, 0.41, 0.137, and 0.046 μM solutions of the test compounds in DMSO were added to sequential wells filled with 68 μL of a “TGA Working Solution.” See description of this solution as well as other relevant solutions below. The plate was incubated at room temperature for 10 minutes, whereupon 8 μL of warm “Substrate Solution” was added to each well, resulting in a 500 μM concentration of the substrate, Z-GGR-AMC (Z-Gly-Gly-Arg-7-amino-4-methylcoumarin·HCl), in each well. Fluorescence intensity data (Ex/Em 380/460 nm) collection began immediately using a Cytation™ or Synergy™ H1 96-well plate reader set to incubate the plate at 37° C. over the data collection time of 90 minutes following double-orbital shaking for a period of 4 seconds. Test compounds were measured parallel to blanks and controls, as well as to wells of the substrate in DMSO at various concentrations (2.50, 0.833, 0.278, 0.093 mM) in the buffers to generate a standard fluorescence curve. Data values were computed automatically, including the ETP EC50 value of the AUC, which is the concentration of the compound that reduces endogenous thrombin potential AUC by 50%.
The various solutions were prepared as follows. A HEPES/NaCl Assay buffer was made by combining 7.5 mL of 5M NaCl, 1.19 g 4-(2-hydroxyethyl)piperazine-1-ethanesulfonic acid (HEPES) and 230 mL of water. An “Innovin Master Solution” was made by combining 20 μL of Siemens Dade Innovin recombinant tissue factor and thromboplastin with 50 μL of 0.5 mM phospholipid-TGT acquired from DiaPharma® in 450 μL of the above HEPES/NaCl Assay buffer. This solution was then vortexed for a few seconds. Next the “Substrate Master Solution” was made by adding 3.2 mL DMSO to 100 mg of Z-GGR-AMC (Z-Gly-Gly-Arg-7-amino-4-methylcoumarin·HCl) and vortexing in a polystyrene tube. This solution was stored at −20° C. A “TGA Working Solution” was prepared by adding 6.2 mL of human plasma, 50 μL of the Innovin Master Solution, and 80 μL of phospholipids to 2.6 mL of HEPES/NaCl Assay buffer. A “Substrate Working Solution” was made immediately before addition to the assay plate by adding 200 μL of the above “Substrate Master Solution” to a pre-warmed (37° C.) mixture of 1.46 mL of HEPES/NaCl Assay buffer and 340 μL of 1M CaCl2).
For additional description of this assay, please see Robert, S. et al. ‘Is thrombin generation the new rapid, reliable and relevant pharmacological tool for the development of anticoagulant drugs?’2009, Pharmacol Res 59:160-6 as well as Hemker, H. C. et al. ‘Calibrated automated thrombin generation measurement in clotting plasma.’ 2003, Pathophysiol Haemost Thromb 33:4-15.

Mouse plasma stability = assay type: in vitro ADME, mouse (CD-1); details: CD-1 mouse plasma, 37° C., time points to 160 min; read-out: Mouse Plasma Stability t1/2
Protocol: (§1) Alongside a positive control of propantheline bromide, 8 μL of a 1 mM solution of each test compound in DMSO was placed in two wells of a Nunc™ 96-well plate called the “dilution plate.” To one well, 392 μL of HyClone™ water was added and mixed by a pipette. To the other well, 392 μL of mouse or rat plasma stabilized with sodium citrate purchased from Innovative Research was added and mixed by a pipette. The dilution plate was kept covered to reduce solvent evaporation and heated in an incubator at 37° C. At each of the time points enumerated below, the plate was removed from the incubator and 50 μL of the test compound/water or test compound/plasma solutions were transferred to a unique, corresponding well in a “quench plate” (96-well Costar® plate) that contains 150 μL of a quench solution that contains an internal standard (20 uM diclofenac in acetonitrile). The dilution plate was then returned to the incubator. This process was performed at 0, 5, 10, 20, 40, 80, and 160 minutes from the original mixing of the test compounds with the water or plasma in the dilution plate. After the quenching of the 160-minute time point, the quench plate was then centrifuged at 4° C. at 1000×g for 10 minutes. 100 μL of the supernatant of each well were then transferred to corresponding unique wells in a “read plate” (96-well Costar® plate) that were filled with 100 μL of HyClone™ water. The plate was then sealed and analyzed via UHPLC using a 10-μL sample injection through a Phenomenex® Kinetex column pre-equilibrated with the loading buffer (95:5 water:acetonitrile). The parameters were as follows. Mobile Phase A: water, 0.025% formic acid. Mobile Phase B: acetonitrile, 0.025% formic acid. Flow Rate: 0.5 mL/min. […] Half-life (t1/2) times were computed by using a chi-square analysis to fit the peak areas to an exponential decay model for compound concentration as a function of time.

Rat plasma stability = assay type: in vitro ADME; details: Sprague-Dawley; SD rat plasma, 37° C., time points to 160 min; read-out: Rat Plasma Stability t1/2
Protocol: as §1

EC50 (thrombin) [nM]	half-life at 20 µM (Mouse plasma stability) [h]	half-life at 20 µM (Rat plasma stability) [h]	Structure (SMILES)
1400	3.83	1.13	CC(C)(C)C(=O)n1nc(-c2cccn(CCCC(=O)O)c2=O)cc1NCc1ccc(Cl)s1 [Compound 5, 4-[3-(5-{[(5-chlorothiophen-2-yl)methyl]amino}-1-(2,2-dimethylpropanoyl)-1H-pyrazol-3-yl)-2-oxo-1,2-dihydropyridin-1-yl]butanoic acid]
1400 to 2100	3.67	3	O=C(O)CCn1cccc(-c2cc(NCc3ccc(Cl)s3)n(C(=O)c3ccoc3)n2)c1=O [Compound 12, 3-[3-(5-{[(5-chlorothiophen-2-yl)methyl]amino}-1-(furan-3-carbonyl)-1H-pyrazol-3-yl)-2-oxo-1,2-dihydropyridin-1-yl]propanoic acid]
960	≥ 5	≥ 5	CCC(C)(C)C(=O)n1nc(-c2cccn(CCC(=O)O)c2=O)cc1NCc1ccc(Cl)s1 [Compound 11, 3-[3-(5-{[(5-chlorothiophen-2-yl)methyl]amino}-1-(2,2-dimethylbutanoyl)-1H-pyrazol-3-yl)-2-oxo-1,2-dihydropyridin-1-yl]propanoic acid]
430	2.67	1.13	CC(C)(N)Cn1cccc(-c2cc(NCc3ccc(Cl)s3)n(C(=O)c3ccoc3)n2)c1=O [Compound 9, 1-(2-amino-2-methylpropyl)-3-(5-{[(5-chlorothiophen-2-yl)methyl]amino}-1-(furan-3-carbonyl)-1H-pyrazol-3-yl)-1,2-dihydropyridin-2-one]
990	2.67	1.13	CC(C)(C)C(=O)n1nc(-c2cccn(CCC(N)=O)c2=O)cc1NCc1ccc(Cl)s1 [Compound 8, 3-[3-(5-{[(5-chlorothiophen-2-yl)methyl]amino}-1-(2,2-dimethylpropanoyl)-1H-pyrazol-3-yl)-2-oxo-1,2-dihydropyridin-1-yl]propanamide]
2800 to 6200	≥ 5	3	CC(C)(C)C(=O)n1nc(-c2cccn(CC(=O)O)c2=O)cc1NCc1ccc(Cl)s1 [Compound 4, 2-[3-(5-{[(5-chlorothiophen-2-yl)methyl]amino}-1-(2,2-dimethylpropanoyl)-1H-pyrazol-3-yl)-2-oxo-1,2-dihydropyridin-1-yl]acetic acid]
930 to 1700	≥ 3	1.13 to 1.83	CC(C)(C)C(=O)n1nc(-c2cccn(CCC(=O)O)c2=O)cc1NCc1ccc(Cl)s1 [Compound 1, 3-[3-(5-{[(5-chlorothiophen-2-yl)methyl]amino}-1-(2,2-dimethylpropanoyl)-1H-pyrazol-3-yl)-2-oxo-1,2-dihydropyridin-1-yl]propanoic acid]
> 100000	≥ 5	≥ 5	O=C(O)Cn1cccc(-c2cc(NCc3ccc(Cl)s3)[nH]n2)c1=O [Compound 3, 2-[3-(5-{[(5-chlorothiophen-2-yl)methyl]amino}-1H-pyrazol-3-yl)-2-oxo-1,2-dihydropyridin-1-yl]acetic acid]
> 100000	≥ 5	≥ 5	O=C(O)CCn1cccc(-c2cc(NCc3ccc(Cl)s3)[nH]n2)c1=O [Compound 2, 3-[3-(5-{[(5-chlorothiophen-2-yl)methyl]amino}-1H-pyrazol-3-yl)-2-oxo-1,2-dihydropyridin-1-yl]propanoic acid]
